The values that follow come from US11891365B2, “3-alkyl-4-amido-bicyclic [4,5,0] hydroxamic acids as HDAC inhibitors” (Valo Health, Inc., priority 2015, dated 2024).

pIC50: −log10 of the molar value. Bounds are passed on as bounds.

This experiment addresses T1, Full length human recombinant HDAC6 protein (Homo sapiens, UniProt Q9UBN7).
T1 sequence (Q9UBN7 1-1215): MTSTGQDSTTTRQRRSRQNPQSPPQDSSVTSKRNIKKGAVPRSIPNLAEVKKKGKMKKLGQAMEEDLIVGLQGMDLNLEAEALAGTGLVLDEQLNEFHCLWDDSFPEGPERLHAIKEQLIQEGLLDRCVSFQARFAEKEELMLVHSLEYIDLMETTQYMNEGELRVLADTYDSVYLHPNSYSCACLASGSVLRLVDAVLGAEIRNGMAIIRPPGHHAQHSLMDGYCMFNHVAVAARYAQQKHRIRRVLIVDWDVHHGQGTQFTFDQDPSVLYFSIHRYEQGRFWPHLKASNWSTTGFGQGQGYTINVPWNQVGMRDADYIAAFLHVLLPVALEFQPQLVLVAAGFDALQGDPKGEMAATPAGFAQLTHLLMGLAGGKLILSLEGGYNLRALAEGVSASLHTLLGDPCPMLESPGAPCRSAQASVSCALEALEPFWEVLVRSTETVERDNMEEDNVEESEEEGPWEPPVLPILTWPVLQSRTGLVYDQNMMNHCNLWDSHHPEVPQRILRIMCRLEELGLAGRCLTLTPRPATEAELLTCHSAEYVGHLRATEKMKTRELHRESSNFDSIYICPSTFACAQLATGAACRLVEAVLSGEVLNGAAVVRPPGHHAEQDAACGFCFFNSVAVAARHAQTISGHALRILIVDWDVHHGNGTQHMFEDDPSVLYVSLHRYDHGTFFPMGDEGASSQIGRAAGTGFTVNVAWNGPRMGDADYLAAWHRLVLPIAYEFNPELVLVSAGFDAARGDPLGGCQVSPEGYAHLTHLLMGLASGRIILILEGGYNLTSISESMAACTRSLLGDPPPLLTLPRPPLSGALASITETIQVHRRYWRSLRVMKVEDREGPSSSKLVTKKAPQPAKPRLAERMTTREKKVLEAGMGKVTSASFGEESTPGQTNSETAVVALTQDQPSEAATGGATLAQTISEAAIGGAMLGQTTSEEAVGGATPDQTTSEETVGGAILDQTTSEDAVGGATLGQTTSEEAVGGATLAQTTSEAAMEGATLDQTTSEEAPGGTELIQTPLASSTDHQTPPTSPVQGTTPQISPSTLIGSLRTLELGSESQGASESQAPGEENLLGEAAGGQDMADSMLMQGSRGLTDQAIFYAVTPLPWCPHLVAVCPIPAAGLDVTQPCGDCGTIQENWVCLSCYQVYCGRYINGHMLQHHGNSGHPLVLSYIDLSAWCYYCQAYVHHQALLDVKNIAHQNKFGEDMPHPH
Description: In vitro histone deacetylase assay: enzymatic HDAC6 electrophoretic mobility shift assay. The format is biochemical. Conditions: 1 nM enzyme, 2 μM peptide substrate RHKK(Ac)-NH2, 25° C., 12 concentrations; read-out: Inhibitory Concentration (IC50) Values against HDAC6, Activity Range.

Turning to `Cc1nc(CC(=O)N2CCOc3cc(C(=O)NO)ccc3C2)cs1` [N-hydroxy-4-(2-(2-methylthiazol-4-yl)acetyl)-2,3,4,5-tetrahydrobenzo[f][1,4]oxazepine-8-carboxamide], the pIC50 was 6.30 to 7.00.

Regarding `O=C(NO)c1ccc2c(c1)OCCN(C(=O)Cn1cccc(C(F)(F)F)c1=O)C2` [N-hydroxy-4-(2-(2-oxo-3-(trifluoromethyl)pyridin-1(2H)-yl)acetyl)-2,3,4,5-tetrahydrobenzo[f][1,4]oxazepine-8-carboxamide], the pIC50 is 6.30 to 7.00.

For `O=C(NO)c1ccc2c(c1)OCCN(C(=O)C(c1ccccc1)N1CCCCC1=O)C2` (stereo not shown) [N-hydroxy-4-(2-(2-oxopiperidin-1-yl)-2-phenylacetyl)-2,3,4,5-tetrahydrobenzo[f][1,4]oxazepine-8-carboxamide], the pIC50 was 6.30 to 7.00.

In the case of `O=C(NO)c1ccc2c(c1)OCCN(C(=O)Cc1ccccc1Oc1ccccc1)C2` [N-hydroxy-4-(2-(2-phenoxyphenyl)acetyl)-2,3,4,5-tetrahydrobenzo[f][1,4]oxazepine-8-carboxamide], the pIC50 is less than 6.30.

Turning to `COc1cccc(C(C)(C)C(=O)N2CCOc3cc(C(=O)NO)ccc3C2)c1` [N-hydroxy-4-(2-(3-methoxyphenyl)-2-methylpropanoyl)-2,3,4,5-tetrahydrobenzo[f][1,4]oxazepine-8-carboxamide], the pIC50 is 6.30 to 7.00.

For `O=C(NO)c1ccc2c(c1)OCCN(C(=O)Cc1ccc(C(F)(F)F)cc1)C2` [N-hydroxy-4-(2-(4-(trifluoromethyl)phenyl)acetyl)-2,3,4,5-tetrahydrobenzo[f][1,4]oxazepine-8-carboxamide], the pIC50 was less than 6.30.

Consider `O=C(NO)c1ccc2c(c1)OCCN(C(=O)C(c1ccccc1)N1CCC(O)CC1)C2` (stereo not shown) [N-hydroxy-4-(2-(4-hydroxypiperidin-1-yl)-2-phenylacetyl)-2,3,4,5-tetrahydrobenzo[f][1,4]oxazepine-8-carboxamide], for which the pIC50 is 6.30 to 7.00.

On to `CC(C)COc1ccc(C(C)(C)C(=O)N2CCOc3cc(C(=O)NO)ccc3C2)cc1` [N-hydroxy-4-(2-(4-isobutoxyphenyl)-2-methylpropanoyl)-2,3,4,5-tetrahydrobenzo[f][1,4]oxazepine-8-carboxamide], for which the pIC50 was 6.30 to 7.00.

`COc1ccc(OCC(=O)N2CCOc3cc(C(=O)NO)ccc3C2)cc1` [N-hydroxy-4-(2-(4-methoxyphenoxy)acetyl)-2,3,4,5-tetrahydrobenzo[f][1,4]oxazepine-8-carboxamide]: the pIC50 was not below 7.00.

In the case of `COc1ccc(CC(=O)N2CCOc3ccc(C(=O)NO)cc3C2)cc1` [N-hydroxy-4-(2-(4-methoxyphenyl)acetyl)-2,3,4,5-tetrahydrobenzo[f][1,4]oxazepine-7-carboxamide], the pIC50 was less than 6.30.

`COc1ccc(CC(=O)N2CCOc3cc(C(=O)NO)ccc3C2)cc1` [N-hydroxy-4-(2-(4-methoxyphenyl)acetyl)-2,3,4,5-tetrahydrobenzo[f][1,4]oxazepine-8-carboxamide]: the pIC50 is less than 6.30.

As to `COc1ccc(CC(=O)N2CC(=O)Nc3ccc(C(=O)NO)cc3C2)cc1` [N-hydroxy-4-(2-(4-methoxyphenyl)acetyl)-2-oxo-2,3,4,5-tetrahydro-1H-benzo[e][1,4]diazepine-7-carboxamide], the pIC50 is less than 6.30.

In the case of `COc1ccc2[nH]cc(CC(=O)N3CCOc4cc(C(=O)NO)ccc4C3)c2c1` [N-hydroxy-4-(2-(5-methoxy-1H-indol-3-yl)acetyl)-2,3,4,5-tetrahydrobenzo[f][1,4]oxazepine-8-carboxamide], the pIC50 is less than 6.30.

Consider `Cc1nnnn1C(C(=O)N1CCOc2cc(C(=O)NO)ccc2C1)c1ccccc1` (stereo not shown) [N-hydroxy-4-(2-(5-methyl-1H-tetrazol-1-yl)-2-phenylacetyl)-2,3,4,5-tetrahydrobenzo[f][1,4]oxazepine-8-carboxamide], for which the pIC50 was 6.30 to 7.00.

In the case of `CC(C(=O)N1CCOc2cc(C(=O)NO)ccc2C1)c1cccnc1` (stereo not shown) [N-hydroxy-4-(2-(pyridin-3-yl)propanoyl)-2,3,4,5-tetrahydrobenzo[f][1,4]oxazepine-8-carboxamide], the pIC50 was not below 7.00.

Take `O=C(NO)c1ccc2c(c1)OCCN(C(=O)C1CCCC13CCNC3)C2` (stereo not shown) [N-hydroxy-4-(2-azaspiro[4.4]nonane-6-carbonyl)-2,3,4,5-tetrahydrobenzo[f][1,4]oxazepine-8-carboxamide]: the pIC50 is 6.30 to 7.00.

On to `O=C(NO)c1ccc2c(c1)OCCN(C(=O)C1CCC3(CCNC3)CC1)C2` (stereo not shown) [N-hydroxy-4-(2-azaspiro[4.5]decane-8-carbonyl)-2,3,4,5-tetrahydrobenzo[f][1,4]oxazepine-8-carboxamide], for which the pIC50 was not below 7.00.

For `CC(C)(O)C(=O)N1CCOc2cc(C(=O)NO)ccc2C1` [N-hydroxy-4-(2-hydroxy-2-methylpropanoyl)-2,3,4,5-tetrahydrobenzo[f][1,4]oxazepine-8-carboxamide], the pIC50 was 6.30 to 7.00.

`CC(C)C(O)(C(=O)N1CCOc2cc(C(=O)NO)ccc2C1)c1ccccc1` (stereo not shown) [N-hydroxy-4-(2-hydroxy-3-methyl-2-phenylbutanoyl)-2,3,4,5-tetrahydrobenzo[f][1,4]oxazepine-8-carboxamide]: the pIC50 is less than 6.30.

Turning to `CC(C)COCC(=O)N1CCOc2cc(C(=O)NO)ccc2C1` [N-hydroxy-4-(2-isobutoxyacetyl)-2,3,4,5-tetrahydrobenzo[f][1,4]oxazepine-8-carboxamide], the pIC50 was less than 6.30.

With `Cc1cc(C)c(CC(=O)N2CCOc3cc(C(=O)NO)ccc3C2)c(C)c1` [N-hydroxy-4-(2-mesitylacetyl)-2,3,4,5-tetrahydrobenzo[f][1,4]oxazepine-8-carboxamide], the pIC50 is not below 7.00.

Consider `COC(C(=O)N1CCOc2cc(C(=O)NO)ccc2C1)c1ccccc1` (stereo not shown) [N-hydroxy-4-(2-methoxy-2-phenylacetyl)-2,3,4,5-tetrahydrobenzo[f][1,4]oxazepine-8-carboxamide], for which the pIC50 is 6.30 to 7.00.

For the molecule `COC(C)(C(=O)N1CCOc2cc(C(=O)NO)ccc2C1)c1ccccc1` (stereo not shown) [N-hydroxy-4-(2-methoxy-2-phenylpropanoyl)-2,3,4,5-tetrahydrobenzo[f][1,4]oxazepine-8-carboxamide], the pIC50 was 6.30 to 7.00.

Turning to `Cc1ccn(C(C)(C)C(=O)N2CCOc3cc(C(=O)NO)ccc3C2)n1` [N-hydroxy-4-(2-methyl-2-(3-methyl-1H-pyrazol-1-yl)propanoyl)-2,3,4,5-tetrahydrobenzo[f][1,4]oxazepine-8-carboxamide], the pIC50 was not below 7.00.

As for `CC(C)(C(=O)N1CCOc2cc(C(=O)NO)ccc2C1)c1ccc2ccccc2c1` [N-hydroxy-4-(2-methyl-2-(naphthalen-2-yl)propanoyl)-2,3,4,5-tetrahydrobenzo[f][1,4]oxazepine-8-carboxamide], the pIC50 was 6.30 to 7.00.

As for `CC(C)(C(=O)N1CCOc2cc(C(=O)NO)ccc2C1)c1ccccn1` [N-hydroxy-4-(2-methyl-2-(pyridin-2-yl)propanoyl)-2,3,4,5-tetrahydrobenzo[f][1,4]oxazepine-8-carboxamide], the pIC50 is 6.30 to 7.00.

Consider `CC(C)(C(=O)N1CCOc2cc(C(=O)NO)ccc2C1)c1cccnc1` [N-hydroxy-4-(2-methyl-2-(pyridin-3-yl)propanoyl)-2,3,4,5-tetrahydrobenzo[f][1,4]oxazepine-8-carboxamide], for which the pIC50 is 6.30 to 7.00.

For `CC(C)(C(=O)N1CCOc2cc(C(=O)NO)ccc2C1)c1cccs1` [N-hydroxy-4-(2-methyl-2-(thiophen-2-yl)propanoyl)-2,3,4,5-tetrahydrobenzo[f][1,4]oxazepine-8-carboxamide], the pIC50 is not below 7.00.

With `CC(C)(C(=O)N1CCOc2cc(C(=O)NO)ccc2C1)c1ccccc1` [N-hydroxy-4-(2-methyl-2-phenylpropanoyl)-2,3,4,5-tetrahydrobenzo[f][1,4]oxazepine-8-carboxamide], the pIC50 is 6.30 to 7.00.

With `CC(Cc1ccccc1)C(=O)N1CCOc2cc(C(=O)NO)ccc2C1` (stereo not shown) [N-hydroxy-4-(2-methyl-3-phenylpropanoyl)-2,3,4,5-tetrahydrobenzo[f][1,4]oxazepine-8-carboxamide], the pIC50 was not below 7.00.

Regarding `O=C(NO)c1ccc2c(c1)OCCN(C(=O)CN1CCOCC1)C2` [N-hydroxy-4-(2-morpholinoacetyl)-2,3,4,5-tetrahydrobenzo[f][1,4]oxazepine-8-carboxamide], the pIC50 is less than 6.30.
